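Cells were grown in 96-well plates and exposed to each compound for 48 hours at five concentrations; endpoints were interpolated linearly between bracketing concentrations, or set to the highest concentration if not reached. TGI marks complete inhibition of growth.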 A value given as a limit tells only on which side of the number the result lay.

Among the test systems are HL-60(TB) leukemia; LXFL 529 NSCLC; OVCAR-4 ovarian; UACC-257 melanoma; SF-539 CNS; NCI-H460 lung; EKVX NSCLC; OVCAR-8 ovarian; SF-268 CNS; ACHN renal; SK-MEL-2 melanoma; OVCAR-3 ovarian; NCI-H23 lung; UO-31 renal; CAKI-1 renal; SK-MEL-28 melanoma; IGROV1 ovarian; LOX IMVI melanoma; SNB-75 CNS; DU-145 prostate.
Test in all cases: inhibition of tumour cell growth, NCI panel, 48 h

Regarding `COc1cc(/C=C(\C#N)C(=O)c2ccccc2)ccc1O`, the TGI with HL-60(TB) leukemia, with LXFL 529 NSCLC, in the assay on OVCAR-4 ovarian, with UACC-257 melanoma, in the assay on SF-539 CNS and with NCI-H460 lung was above 100 µM each time. For the same compound, the TGI in the assay with EKVX NSCLC, in the assay with OVCAR-8 ovarian, in the assay with SF-268 CNS, in the assay on ACHN renal, with SK-MEL-2 melanoma and in the assay on OVCAR-3 ovarian was above 100 µM throughout. The TGI in the assay on NCI-H23 lung, in the assay on UO-31 renal, in the assay with CAKI-1 renal, with SK-MEL-28 melanoma, with IGROV1 ovarian and with LOX IMVI melanoma was above 100 µM throughout.

`CC(=O)OC[C@]1(O)CC[C@@]23CC1C[C@@H]2CCC1C(C)(C)CCC[C@@]13C` (stereo partly drawn): the TGI in the assay on HL-60(TB) leukemia was 20.4 µM; in the assay with LXFL 529 NSCLC, 23.2 µM; in the assay on OVCAR-4 ovarian, 30 µM; in the assay with UACC-257 melanoma, 29.4 µM; in the assay on SF-539 CNS it was 30.4 µM; with NCI-H460 lung, 30.2 µM. The TGI in the assay on OVCAR-8 ovarian was 32 µM; in the assay on SF-268 CNS it was 30.4 µM; in the assay on ACHN renal, 29.3 µM; in the assay on OVCAR-3 ovarian it was 30.8 µM; in the assay with SNB-75 CNS, 30 µM; in the assay with NCI-H23 lung, 26.4 µM. The TGI in the assay with UO-31 renal is 29.9 µM; in the assay on CAKI-1 renal, 32.4 µM; in the assay on SK-MEL-28 melanoma it was 28.1 µM; with IGROV1 ovarian it was 34.5 µM; with LOX IMVI melanoma, 23.3 µM.

Take `O=C1CCC(=O)N1Cc1ccccc1N=[N+]([O-])c1ccccc1CN1C(=O)CCC1=O`: the TGI in the assay with HL-60(TB) leukemia, in the assay with LXFL 529 NSCLC, in the assay with OVCAR-4 ovarian, with SF-539 CNS, in the assay with NCI-H460 lung and in the assay with EKVX NSCLC was above 100 µM in each case. Moreover, the TGI in the assay with OVCAR-8 ovarian is above 100 µM; in the assay with SF-268 CNS, above 100 µM; with ACHN renal, above 100 µM; in the assay with SK-MEL-2 melanoma, above 100 µM; in the assay with OVCAR-3 ovarian, above 100 µM; in the assay on SNB-75 CNS, 65.6 µM. In addition, the TGI in the assay on NCI-H23 lung, in the assay with UO-31 renal, with SK-MEL-28 melanoma, in the assay on IGROV1 ovarian and in the assay on LOX IMVI melanoma was above 100 µM each time.

In the case of `CN(C(=O)C12C3C4C1C1C4(C(=O)C45C6C7C4C4C5C6C74C)C3C12C)C(C)(C)C` (stereo not drawn), the TGI was 43.2 µM with HL-60(TB) leukemia; above 100 µM in the assay on LXFL 529 NSCLC; above 100 µM in the assay with UACC-257 melanoma; above 100 µM in the assay with SF-539 CNS; above 100 µM in the assay with NCI-H460 lung; above 100 µM in the assay with EKVX NSCLC. Besides, the TGI with OVCAR-8 ovarian, in the assay on SF-268 CNS, with ACHN renal, with SK-MEL-2 melanoma, in the assay with SNB-75 CNS and with NCI-H23 lung was above 100 µM throughout. For the same compound, the TGI with UO-31 renal, in the assay with CAKI-1 renal, in the assay with SK-MEL-28 melanoma, in the assay on IGROV1 ovarian and in the assay on LOX IMVI melanoma was above 100 µM in each case.

As to `COc1cccc(NC(=O)/C(CC(=O)CC(c2ccccc2)c2c(O)c3ccccc3oc2=O)=N\NC(C)(C)C)c1OC` (stereo not drawn), the TGI in the assay on HL-60(TB) leukemia, with LXFL 529 NSCLC, with OVCAR-4 ovarian, in the assay on UACC-257 melanoma, with SF-539 CNS and in the assay with NCI-H460 lung was above 100 µM each time. Further, the TGI in the assay with EKVX NSCLC, in the assay with OVCAR-8 ovarian, in the assay with SF-268 CNS, in the assay on ACHN renal, with SK-MEL-2 melanoma and in the assay with OVCAR-3 ovarian was above 100 µM throughout. The TGI in the assay on SNB-75 CNS, with UO-31 renal, with CAKI-1 renal, with SK-MEL-28 melanoma, with IGROV1 ovarian and in the assay on LOX IMVI melanoma was above 100 µM throughout.

Take `COC(=O)N1CCc2c(nc(N(C)CCO)[nH]c2=O)C1`: the TGI in the assay with HL-60(TB) leukemia, in the assay with LXFL 529 NSCLC, in the assay on UACC-257 melanoma, with SF-539 CNS, in the assay with NCI-H460 lung and in the assay with EKVX NSCLC was above 100 µM throughout. The TGI in the assay with OVCAR-8 ovarian, in the assay with SF-268 CNS, in the assay on ACHN renal, in the assay with SK-MEL-2 melanoma, in the assay with OVCAR-3 ovarian and with SNB-75 CNS was above 100 µM throughout. Moreover, the TGI in the assay with NCI-H23 lung, with UO-31 renal, in the assay with CAKI-1 renal, with SK-MEL-28 melanoma, in the assay with IGROV1 ovarian and in the assay with LOX IMVI melanoma was above 100 µM throughout.

`CC(C)(C)c1cc(C(C)(C)C)c(SS(=O)(=O)O)c(O)c1O`: the TGI is above 100 µM in the assay on HL-60(TB) leukemia; above 100 µM in the assay with OVCAR-4 ovarian; above 100 µM in the assay on UACC-257 melanoma; 37.4 µM with SF-539 CNS; above 100 µM in the assay with NCI-H460 lung; above 100 µM in the assay on EKVX NSCLC. Besides, the TGI in the assay on OVCAR-8 ovarian is above 100 µM; with SF-268 CNS, above 100 µM; with ACHN renal, above 100 µM; in the assay on SK-MEL-2 melanoma it was 94.5 µM; in the assay with OVCAR-3 ovarian, above 100 µM; with SNB-75 CNS, 99.1 µM. Further, the TGI in the assay with NCI-H23 lung, in the assay with UO-31 renal, in the assay on DU-145 prostate, in the assay on CAKI-1 renal, in the assay on SK-MEL-28 melanoma and in the assay with IGROV1 ovarian was above 100 µM in each case. Also, the TGI in the assay on LOX IMVI melanoma was above 100 µM.

Consider `CCN1CCN(c2ccc(Nc3ccnc4ccc5c(nnn5C)c34)cc2)CC1`, for which the TGI was 25.9 µM with HL-60(TB) leukemia; 48.2 µM with OVCAR-4 ovarian; 26.1 µM with UACC-257 melanoma; 11.1 µM with SF-539 CNS; 11.9 µM in the assay with NCI-H460 lung; 43.9 µM in the assay on EKVX NSCLC. Further, the TGI in the assay with OVCAR-8 ovarian was 40.8 µM; in the assay with SF-268 CNS, 23.1 µM; with ACHN renal, 11.5 µM; in the assay on SK-MEL-2 melanoma, 24.8 µM; with OVCAR-3 ovarian, 18.9 µM; in the assay on SNB-75 CNS, 30.5 µM. Moreover, the TGI was 29.4 µM in the assay with NCI-H23 lung; 25.7 µM in the assay with UO-31 renal; 18.3 µM in the assay with DU-145 prostate; 21.7 µM with CAKI-1 renal; 23.9 µM with SK-MEL-28 melanoma; 32.6 µM in the assay on IGROV1 ovarian. This compound also registered a TGI with LOX IMVI melanoma of 13.1 µM.

For the origin of these results see PubChem BioAssay (NCI).
